The results in this text go back to patent publication US20190336583A1, “COMPOSITIONS AND METHODS FOR TREATING IRON OVERLOAD” (priority 2017, published 2019).

In series [1] the test system is serum iron levels. The series is described as follows: Effect of 1, 5, 10 and 50 mg subcutaneous hepcidin on serum iron levels in normal rats (Example 3). The class given is in vivo.
Description: A study was designed to evaluate doses of 1, 5, 10, and 50 mg of hepcidin delivered subcutaneously and their effect on serum iron levels in normal rats (n=7/group).
The subject of series [2] is serum iron levels. The series is described as follows: Serum iron levels in expanded acute study in Sprague Dawley rats (Example 4).
Description: A study was designed to evaluate doses of 5, 25, and 50 mg/kg of hepcidin (human equivalent dose of 0.8, 4, 8 mg/kg, respectively), delivered SC to Sprague Dawley rats (n=9/sex/group).
The nature of series [3]: Expanded acute toxicity study (NOAEL) in Sprague Dawley rats (Example 4). The settings on record: rat, in vivo. As for the experimental part:
(§1) Hepcidin was evaluated in two expanded, acute studies in rats and dogs. These studies were conducted to determine the no-observed adverse effect level (NOAEL). The NOAEL was determined to be 5 mg/kg/day in dogs due to various clinical and histopathological observations.

The nature of series [4]: Expanded acute toxicity study (NOAEL), single subcutaneous dose in dogs (Example 4). To be noted: dog, in vivo. How it is done:
as §1

For series [5], the system named is serum iron levels. Kind of series: Effect of 50, 100 and 200 μg subcutaneous hepcidin on serum iron levels in mice (Example 2). Format: in vivo. The settings on record: for serum iron levels compared to vehicle: p<0.01. As for the experimental part:
Conversely, 50 μg and 100 μg doses were elevated (p<0.01) compared to the vehicle at 24 hours post dose. The elevated levels of serum iron could be due to the system's reaction to the clearance of hepcidin. […] Mortality was likely related to the stress of the blood collection. Serum iron levels normalized 72 hours post dose.

For series [6] the following is noted: normal rats, any dose level.
The test system of series [7] is serum iron levels. Kind of series: Effect of subcutaneous hepcidin on serum iron levels in mice (Example 1). The class given is in vivo. To be noted: 50 μg dose subcutaneously, p<0.05. The text has this: A study was designed to evaluate the effect of subcutaneous doses of hepcidin on serum iron levels in mice (n=6-7/group).

For the compound `CC[C@H](C)[C@@H]1NC(=O)[C@@H](NC(=O)[C@@H](NC(=O)[C@@H]2CCCN2C(=O)[C@H](Cc2ccccc2)NC(=O)[C@H](Cc2c[nH]cn2)NC(=O)[C@@H](NC(=O)[C@@H](N)CC(=O)O)[C@@H](C)O)[C@@H](C)CC)CSSC[C@@H](C(=O)N[C@@H](CCCCN)C(=O)N[C@H](C(=O)O)[C@@H](C)O)NC(=O)[C@@H]2CSSC[C@@H]3NC(=O)[C@@H]4CSSC[C@H](NC(=O)[C@H](Cc5ccccc5)NC1=O)C(=O)N[C@@H](CSSC[C@H](NC(=O)[C@H](CCCCN)NC(=O)[C@H](CO)NC(=O)[C@H](CCCNC(=N)N)NC(=O)[C@H](Cc1c[nH]cn1)NC3=O)C(=O)NCC(=O)N[C@@H](CCSC)C(=O)N2)C(=O)NCC(=O)N4` [hepcidin], the “time at which serum iron levels returned to pre-dose levels” value with serum iron levels [1] (normal rats, 5 mg dose, post dose) is 48 h. Moreover, in the series on serum iron levels [1] (normal rats, 10 mg and 50 mg dose groups, 72 hours post dose), the “return of serum iron levels to pre-dose levels” value is “did not return to pre-dose levels”. Further, the “effect on serum iron levels” value in the series with serum iron levels [1] (normal rats, 50 mg, at 72 hours) is “still demonstrated an effect”. The serum iron levels entry is on record as “significant decrease in serum iron levels” with serum iron levels [1] (normal rats, 1, 5, 10 and 50 mg subcutaneously, all dose levels); “normalized” in the series on serum iron levels [5] (mice, 72 hours post dose). Also, the “time of lowest serum iron concentrations” value in the series with serum iron levels [1] (normal rats, post dose, all three doses) turned out to be 4 h. In addition, the “average serum iron levels compared to vehicle and pre-dose levels” value with serum iron levels [2] (Sprague Dawley rats, 5, 25 and 50 mg/kg SC, all doses) is “significantly decreased”. The “time of lowest serum iron level” value in the series with serum iron levels [2] (Sprague Dawley rats, post dose, all three doses) stood at 4 h. Besides, the “toxicokinetic (TK) effect, male vs female” value in series [3] is reported as “comparable for both sexes”. For the same compound, in series [4], the “administration site microscopic findings, Day 15: cystic space” value is listed as “cystic space”. For the same compound, the “administration site microscopic findings, Day 15: fibrosis” value in series [4] is “fibrosis”. Besides, the other adverse reactions result in series [4] is “hunched posture, soft feces, gross pathology finding of “thick,” and subcutaneous fibrosis, mixed cell infiltration, and cysts present at recovery period”. Further, in series [4] (25 mg/kg), the “administration site microscopic findings, Day 4” value was “mixed cell infiltration in the administration site”. The “serum iron levels compared to vehicle” value in the series on serum iron levels [5] (mice, 50 μg and 100 μg doses, 24 hours post dose) was “elevated”; with serum iron levels [5] (mice, 50, 100 and 200 μg subcutaneously (all three doses), 4 hours post dose) it was “significant decrease in serum iron levels”. The mortality entry in the series with serum iron levels [5] (mice, following the 4-hour blood collection, likely related to the stress of the blood collection) is on record as “One mouse died”. Further, in series [6], the lethargy entry is reported as “No lethargy was observed”. For the same compound, the “decrease in serum iron levels compared to vehicle (average)” value came out at 40% in the series on serum iron levels [7] (4 hours post dose) and 15% with serum iron levels [7] (24 hours post dose).
